In patent US6638952B1, “Aromatic sulfonyl alpha-cycloamino hydroxamic acid compounds” (Pharmacia Corporation, priority 1997, dated 2003):
pIC50: −log10 of the molar value. Where a name gives a salt, the structure may show the parent alone. One block for each compound: values may come before it.

Columns and labels:
recombinant human MMP-13 = molecular target: T1, recombinant human MMP-13 (Homo sapiens, UniProt P45452); test: In vitro metalloprotease inhibition, fluorogenic peptide substrate; format: biochemical; conditions: for pIC50: APMA-activated enzyme, room temperature, pH 7.5, substrate 4 μM
T1 construct: made in house

recombinant human MMP-1 = molecular target: T2, recombinant human MMP-1 (Homo sapiens, UniProt P03956); test: as above; format: biochemical; conditions: for pIC50: APMA-activated enzyme, room temperature, pH 7.5, substrate 4 μM
T2 construct: made in house; host or cells: transfected HT-1080 cells (provided by Dr. Howard Welgus, Washington University)
T2 sequence (P03956 100-469): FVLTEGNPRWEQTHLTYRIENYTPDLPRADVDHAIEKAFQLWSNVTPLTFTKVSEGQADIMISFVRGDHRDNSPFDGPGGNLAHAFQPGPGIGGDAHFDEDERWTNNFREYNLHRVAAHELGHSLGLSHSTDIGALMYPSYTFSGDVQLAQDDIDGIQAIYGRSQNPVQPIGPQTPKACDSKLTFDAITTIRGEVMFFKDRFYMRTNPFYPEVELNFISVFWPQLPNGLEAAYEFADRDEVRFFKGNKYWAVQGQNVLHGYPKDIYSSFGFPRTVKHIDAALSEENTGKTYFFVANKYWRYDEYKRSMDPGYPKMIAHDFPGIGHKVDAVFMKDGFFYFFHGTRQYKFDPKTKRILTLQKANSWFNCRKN

[1] = test system: solid tumor cancers (colorectal, pancreatic, ovarian, prostate); conditions: patients, cited from earlier work
[2] = test system: neovascularization of the corneal stroma; test: In vivo angiogenesis assay (corneal micropocket); conditions: mouse cornea, bFGF/sucralfate pellet, daily dosing, scored at day five; exemplary dose 50 mg/kg bid, po
Procedure: The study of angiogenesis depends on a reliable and reproducible model for the stimulation and inhibition of a neovascular response. The corneal micropocket assay provides such a model of angiogenesis in the cornea of a mouse.
In this assay, uniformly sized Hydron™ pellets containing bFGF and sucralfate were prepared and surgically implanted into the stroma mouse cornea adjacent to the temporal limbus. The pellets were formed by making a suspension of 20 μL sterile saline containing 10 μg recombinant bFGF, 10 mg of sucralfate and 10 μL of 12 percent Hydron™ in ethanol. The slurry was then deposited on a 10×10 mm piece of sterile nylon mesh. […]
Mice were dosed on a daily basis for the duration of the assay. […] At day five, the degree of angiogenic inhibition was scored by viewing the neovascular progression with a slit lamp microscope.
The mice were anesthetized and the studied eye was once again proptosed. The maximum vessel length of neovascularization, extending from the limbal vascular plexus toward the pellet was measured. In addition, the contiguous circumferential zone of neovascularization was measured as clock hours, where 30 degrees of arc equals one clock hour. The area of angiogenesis was calculated as follows. […]
The studied mice were thereafter compared to control mice and the difference in the area of neovascularization was recorded.

pIC50 (recombinant human MMP-13): 9.70
pIC50 (recombinant human MMP-1): 6.32
SMILES: CC(C)(C)OC(=O)N1CCC(CS(=O)(=O)c2ccc(Oc3ccccc3)cc2)(C(=O)NO)CC1 [Example 5, 1,1-Dimethylethyl Ester 4-[(Hydroxyamino)-carbonyl]-4-[[(4-phenoxyphenyl]sulfonyl]methyl]-1-piperidinecarboxylic Acid]

pIC50 (recombinant human MMP-13): 9.07
SMILES: C#CCN1CCC(CS(=O)(=O)c2ccc(Oc3ccc(C)c(C)c3)cc2)(C(=O)NO)CC1 [Example 7, N-Hydroxy-4-[[[4-(3,4-dimethylphenoxy)phenyl]sulfonyl]-methyl]-1-(2-propynyl)-4-piperidinecarboxamide, Monohydrochloride]

pIC50 (recombinant human MMP-13): 8.89
SMILES: C#CCN1CCCC1(CS(=O)(=O)c1ccc(Oc2ccccc2)cc1)C(=O)NO (stereo not drawn) [Example 8, N-Hydroxy-2-[[(4-phenoxyphenyl)sulfonyl]-methyl]-1-(2-propynyl)-2-pyrrolidine Carboxamide, Monohydrochloride]

pIC50 (recombinant human MMP-13): 9.22
pIC50 (recombinant human MMP-1): 6.31
SMILES: C#CCN1CCC(CS(=O)(=O)c2ccc(Oc3ccccc3)cc2)(C(=O)NO)CC1 [Example 4, N-Hydroxy-4-[[(4-phenoxyphenyl)sulfonyl]-methyl]-1-(2-propynyl)-4-piperidinecarboxamide, Monohydrochloride]

pIC50 (recombinant human MMP-13): 9.40
pIC50 (recombinant human MMP-1): 6.48
SMILES: COc1cccc(CN2CCC(CS(=O)(=O)c3ccc(Oc4ccccc4)cc3)(C(=O)NO)CC2)c1 [Example 3, N-Hydroxy-1-[(3-methoxyphenyl)methyl]-4-[[(4-phenoxyphenyl)sulfonyl]methyl]-4-piperidinecarboxamide, Monohydrochloride]

The next lines start with the compound.

SMILES: CNC(=O)[C@@H](NC(=O)[C@H](CC(C)C)[C@H](O)C(=O)NO)C(C)(C)C [marimastat]
effect on cancer-specific antigens used as surrogate markers for biological activity ([1]; Phase I/II studies, meta analysis): dose-related reduction in the rise of cancer-specific antigens
most common drug-related toxicity ([1]; clinical trials): musculoskeletal pain and stiffness

SMILES: Cl.O=C(NO)C1(CS(=O)(=O)c2ccc(Oc3ccccc3)cc2)CCNCC1 [Example 6, N-Hydroxy-4-[[(4-phenoxyphenyl)sulfonyl]-methyl]-4-piperidinecarboxamide, Monohydrochloride]
pIC50 (recombinant human MMP-13): 8.10
inhibition of area of neovascularization versus control mice [2]: 80.0%
pIC50 (recombinant human MMP-1): 5.62

SMILES: Cl.O=C(Nc1ccc(S(=O)(=O)CC2(C(=O)NO)CCNCC2)cc1)c1ccccc1 [Example 1, N-hydroxy-4-[[[4-(benzoylamino)phenyl]sulfonyl]methyl]-4-piperidinecarboxamide, monohydrochloride]
pIC50 (recombinant human MMP-13): 6.61
activity against MMP-13 (in words) (recombinant human MMP-13; comment on Table 13): moderate activity
pIC50 (recombinant human MMP-1): < 5.00
activity against MMP-1 (in words) (recombinant human MMP-1; comment on Table 13): virtually unbound

SMILES: O=C(NO)C1(CS(=O)(=O)c2ccc(Oc3ccccc3)cc2)CCN(CCc2ccccc2)CC1 [Example 2, N-Hydroxy-4-[[(4-phenoxyphenyl)sulfonyl]-methyl]-1-(2-phenylethyl)-4-piperidinecarboxamide, Monohydrochloride]
pIC50 (recombinant human MMP-1): 6.15
